Experimental data as given in paper PMC8264504, “Identification of Koumine as a Translocator Protein 18 kDa Positive Allosteric Modulator for the Treatment of Inflammatory and Neuropathic Pain” (Frontiers in Pharmacology, 2021).
Like-named read-outs stand apart in the source and are kept apart here.

Legend:
[1] = tested on: T98G human glioblastoma cells; assay: Cell proliferation assay (BrdU ELISA); format: cell-based
Procedure: T98G cells were plated at 1 × 10^4 cells/well in 96-well plates. […] After 48 h of drug exposure, proliferation was indexed using a BrdU ELISA Kit (Roche Molecular Diagnostics) according to the manufacturer’s protocol, and absorption was measured at 370 nm (reference wavelength 492 nm).

rat model of CIA = assay: Collagen-induced arthritis (CIA) model, MWT and hind paw volume; format: in vivo
Procedure: The induction of CIA in Lewis rats followed protocols and used reagents supplied by Chondrex. Bovine type II collagen (2 mg/ml in 0.05 M acetic acid) was emulsified with incomplete Freund’s adjuvant (IFA; Sigma-Aldrich) using an electric homogenizer equipped with a small blade. Equal volumes of collagen and IFA were mixed in an ice water bath, and collagen was added dropwise to the IFA at 1,000–3,000 rpm. […] Lewis rats were anesthetized and received 0.2 ml of collagen emulsion by subcutaneous injection at the base of the tail. Booster injections were given on day 7 of the study with 0.1 ml of emulsion. Immunized rats received Ro5-4864, koumine or vehicle for seven consecutive days beginning from day 29 after the first collagen injection. The mechanical withdrawal threshold (MWT) was determined on day 29 and day 35, the hind paw volume was determined on day 35, and was measured 60 min following the MWT measurement. Koumine or vehicle was injected s. c., and MWT values were determined 60 min after koumine injection. Ro5-4864 or vehicle was injected i. p., and MWT was determined 50 min after Ro5-4864 injection. To determine whether koumine potentiated the effects of Ro5-4864, koumine (1.0 mg/kg, s. c.) or vehicle was injected 10 min before Ro5-4864 (0.0625–1.0 mg/kg, i. p.) injection, and the MWT was determined 50 min after the last injection. Animals were randomized for treatment and behavioral test were performed in a blinded manner. Mechanical allodynia and edema measurement were measured using the procedures described below. Only rats with mechanical withdrawal threshold scores (calculated by mechanical withdrawal threshold of immunized rats/mechanical withdrawal threshold of normal rats) on day 28 after the first collagen injection >0.75 were used in the study.
Mechanical allodynia was measured using a commercially available electronic von Frey apparatus (Model 2,390; IITC Life Science Inc., Woodland Hills, CA) as described by Mitrirattanakul ([Mitrirattanakul et al., 2006]) with minor modifications. Rats were placed in a Plexiglas box on a steel mesh floor, and analyses were performed using an electronic von Frey apparatus. Stimulation was applied to the center of the hind paw in an upward motion of the von Frey filament until foot withdrawal occurred, and the withdrawal threshold was automatically recorded. The maximum strength of the filament used for von Frey testing was 55 g. The procedure was repeated three times at approximately 5 min intervals for each hind paw, and the MWT was calculated as the mean of the three latencies.
Arthritic edema was assessed by measuring the hind paw volume with a plethysmometer (Yi Yan Technology Development Co., Ltd.) according to the manufacturer’s recommendations.

[2] = molecular target: T1, mouse TSPO recombinant protein (TSPO proteoliposomes) (Mus musculus, UniProt P50637); assay: SPR single-cycle kinetics on TSPO proteoliposomes; format: binding
T1 construct: His tag; made in house; host or cells: Escherichia coli BL21(DE3) pLysS, pET15b vector
Procedure: Cells of the BL21(DE3) pLysS Escherichia coli strain were transformed with the pET15b vector, from which the expression of mouse TSPO recombinant protein was induced by 1 mM isopropyl-1-thiol-β-D-galactopyranoside as previously described ([Robert and Lacapère, 2010]; [Senicourt et al., 2017]). Cells were harvested and resuspended in lysis buffer (150 mM NaCl and 50 mM HEPES-Na, pH 7.8) with the addition of 1 mg/ml lysozyme and sonicated thoroughly. The lysate was centrifuged at 15,000 g at 4°C for 20 min to pellet the insoluble inclusion bodies. The final pellet of inclusion bodies was solubilized in binding buffer (150 mM NaCl, 50 mM HEPES-Na, 1% SDS (wt/vol), pH 7.8) and was purified by the Ni-NTA gravity flow column.
Proteoliposomes composed of DMPC/DMPE (9:1) and TSPO in a 5:1 (wt/wt) ratio were prepared using a previously described method ([Ostuni et al., 2010]). Liposomes composed of DMPC/DMPE (9:1) were prepared as published previously ([Hatty et al., 2014]). A few milligrams of DMPC and DMPE were weighed into a round-bottom glass flask, and chloroform and methanol were added to dissolve them. A thin lipid film was prepared by a rotary evaporator and dried under vacuum for at least 3 h to remove all traces of chloroform and methanol. The dry lipid film was resuspended in PBS buffer (10 mM phosphate buffer, 2.7 mM KCl, 137 mM NaCl) to a concentration of 1 mg/ml, hydrated for 2 h at 45–55°C, and finally sonicated to produce small unilamellar vesicles. The suspension of small unilamellar vesicles was then kept at 45°C for use on the same day. The sizes of proteoliposomes and liposomes were determined by dynamic light scattering using Nicomp 380 Z3000 instrument (Parficle Sizing Systems, America).
SPR analyses were performed at 25°C with a Biacore T200 instrument. For proteoliposomes and liposomes (reference), they were immobilized on a series S L1 sensor chips. It is possible that the repeated regeneration steps in the multicycle kinetics process impairs the activity of TSPO proteoliposomes, thus we were unable to use multicycle kinetics to effectively determine the affinity of TSPO and its ligands. Therefore, the single cycle kinetics, which assumes to be as robust as the classical multicycle kinetics for measuring affinity, was used. Kinetic rate constants for the various analytes were determined using single cycle protocols where five serial 2-fold dilutions of the analytes were injected for 180 s without intervening regeneration, followed by a 300 s dissociation phase after the last injection. Interactions were measured at 30 μl/min. PBS, with addition of 1% DMSO (pH 7.4), was used as running buffer. […] For mouse TSPO in a lipid-free environment, affinity was measured according to established methods with minor modifications ([Zhang et al., 2015]). […]

[3] = acute administration alone on day 29
[4] = given alone daily day 29 to day 35, MWT on day 35

Row | SMILES | EC20 concentration, inhibition of cell proliferation ([1]; 48 h, BrdU) [nM] | EC50 ([1]; 48 h, BrdU, read-out: EC50, inhibition of cell proliferation) [nM] | paw edema (hind paw volume) (rat model of CIA; Ro5-4864 alone at the highest dose tested, daily day 29 to day 35 i.p., day 35) | mechanical allodynia (MWT) (rat model of CIA; [3]) | mechanical allodynia (MWT) (rat model of CIA; [4]) | Kd ([2]; SPR single-cycle kinetics, TSPO proteoliposomes on L1 chip, 25°C, Langmuir 1:1 fit, read-out: KD) [nM] | shift of PK11195 concentration-response curve ([1]; 316.3 μM koumine) | shift of Ro5-4864 concentration-response curve ([1]; 400 μM koumine) | cell proliferation ([1]; koumine on its own at 1–600 μM) | modulation of inhibition of proliferation ([1]; koumine with an EC20 concentration of PK11195 (∼75 μM)) | modulation of inhibition of proliferation ([1]; koumine with an EC20 concentration of Ro5-4864 (∼23 μM)) | modulation of Ro5-4864 antinociceptive effect (MWT) (rat model of CIA; acute coadministration of 1.0 mg/kg koumine s.c. and Ro5-4864 i.p., day 29) | modulation of Ro5-4864-mediated anti-edematogenic effect (hind paw volume) (rat model of CIA; koumine 1.0 mg/kg s.c. coadministered with Ro5-4864 0.25 mg/kg i.p., successive administration, day 35) | modulation of Ro5-4864-mediated analgesic effect (MWT) (rat model of CIA; koumine 1.0 mg/kg s.c. coadministered with Ro5-4864 0.125–1.0 mg/kg i.p., successive administration, day 35) | paw edema (hind paw volume) (rat model of CIA; koumine alone daily day 29 to day 35 s.c., day 35) | Kd [2] [nM]
1 | CN1C(=O)CN=C(c2ccc(Cl)cc2)c2cc(Cl)ccc21 [Ro5-4864, reference compound] | ~23000 | 66000 | significantly inhibited paw edema | reduced mechanical allodynia | clearly reduced mechanical allodynia | 2.06 ± 0.11 |  |  |  |  |  |  |  |  |  | 
2 | C=C[C@@]12CN(C)[C@H]3C[C@]14C(=Nc1ccccc14)[C@H]1C[C@@H]2[C@@H]3CO1 [koumine] |  |  |  | dose-dependent inhibition effect | clearly reduced mechanical allodynia |  | produced a leftward shift in the potency | produced a leftward shift in the potency | did not affect | significantly increased the inhibition of proliferation | significantly increased the inhibition of proliferation | clearly augmented the antinociceptive effect | notably increased | notably increased | did not produce an anti-edematogenic effect | 0.86 ± 0.07
